Data reported in ChEMBL document CHEMBL5226279, “Mercaptoacetamide: A promising zinc-binding group for the discovery of selective histone deacetylase 6 inhibitors” (Eur J Med Chem, 2021).

What was measured:
[1] = biological target: T1, Protein deacetylase HDAC6 (Homo sapiens, UniProt Q9UBN7); experiment: Inhibition of human full length recombinant HDAC6 expressed in baculovirus infected Sf9 cells using RHKKAc as substrate preincubated for 5 to 10 mins followed by substrate addition and measured after 2 hrs by fluorescence based analysis
T1 sequence (Q9UBN7 whole entry): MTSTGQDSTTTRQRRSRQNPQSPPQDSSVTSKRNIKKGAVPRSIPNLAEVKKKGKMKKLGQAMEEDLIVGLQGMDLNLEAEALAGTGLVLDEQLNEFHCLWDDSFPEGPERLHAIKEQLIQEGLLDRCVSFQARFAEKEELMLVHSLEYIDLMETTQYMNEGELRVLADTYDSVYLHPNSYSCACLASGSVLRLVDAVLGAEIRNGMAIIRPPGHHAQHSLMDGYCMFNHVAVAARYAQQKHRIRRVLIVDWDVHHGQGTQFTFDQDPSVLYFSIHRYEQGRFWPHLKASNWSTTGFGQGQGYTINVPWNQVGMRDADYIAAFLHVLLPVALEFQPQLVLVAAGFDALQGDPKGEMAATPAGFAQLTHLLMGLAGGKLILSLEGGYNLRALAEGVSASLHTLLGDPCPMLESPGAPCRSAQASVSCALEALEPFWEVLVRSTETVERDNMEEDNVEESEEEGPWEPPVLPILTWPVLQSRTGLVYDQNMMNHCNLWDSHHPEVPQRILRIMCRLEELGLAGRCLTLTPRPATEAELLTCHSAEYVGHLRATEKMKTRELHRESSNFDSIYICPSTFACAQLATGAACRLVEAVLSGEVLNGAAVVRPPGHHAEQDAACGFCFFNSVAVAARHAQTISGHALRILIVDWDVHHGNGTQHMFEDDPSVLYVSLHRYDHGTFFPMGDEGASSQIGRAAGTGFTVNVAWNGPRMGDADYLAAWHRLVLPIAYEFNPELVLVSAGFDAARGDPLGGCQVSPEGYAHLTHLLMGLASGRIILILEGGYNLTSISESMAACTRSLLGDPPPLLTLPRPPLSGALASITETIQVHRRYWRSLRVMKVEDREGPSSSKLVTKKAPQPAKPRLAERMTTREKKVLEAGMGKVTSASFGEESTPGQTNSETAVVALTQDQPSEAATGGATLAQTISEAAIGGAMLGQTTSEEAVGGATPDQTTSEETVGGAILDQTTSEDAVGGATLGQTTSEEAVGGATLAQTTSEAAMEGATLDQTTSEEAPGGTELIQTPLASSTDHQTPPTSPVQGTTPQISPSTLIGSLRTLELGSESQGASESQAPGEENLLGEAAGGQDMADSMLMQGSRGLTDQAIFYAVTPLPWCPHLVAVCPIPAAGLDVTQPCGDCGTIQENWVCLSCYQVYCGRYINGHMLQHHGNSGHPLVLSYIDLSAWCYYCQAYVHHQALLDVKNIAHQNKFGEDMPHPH

Histone deacetylase 1 = Histone deacetylase 1 (Homo sapiens, UniProt Q13547); experiment: Inhibition of human full length recombinant HDAC1 expressed in baculovirus infected Sf9 cells using RHKKAc as substrate preincubated for 5 to 10 mins followed by substrate addition and measured after 2 hrs by fluorescence based analysis
Histone deacetylase 2 = Histone deacetylase 2 (Homo sapiens, UniProt Q92769); experiment: Inhibition of human full length recombinant HDAC2 expressed in baculovirus infected Sf9 cells using RHKKAc as substrate preincubated for 5 to 10 mins followed by substrate addition and measured after 2 hrs by fluorescence based analysis
Chain of Histone deacetylase 2 (Q92769 whole entry): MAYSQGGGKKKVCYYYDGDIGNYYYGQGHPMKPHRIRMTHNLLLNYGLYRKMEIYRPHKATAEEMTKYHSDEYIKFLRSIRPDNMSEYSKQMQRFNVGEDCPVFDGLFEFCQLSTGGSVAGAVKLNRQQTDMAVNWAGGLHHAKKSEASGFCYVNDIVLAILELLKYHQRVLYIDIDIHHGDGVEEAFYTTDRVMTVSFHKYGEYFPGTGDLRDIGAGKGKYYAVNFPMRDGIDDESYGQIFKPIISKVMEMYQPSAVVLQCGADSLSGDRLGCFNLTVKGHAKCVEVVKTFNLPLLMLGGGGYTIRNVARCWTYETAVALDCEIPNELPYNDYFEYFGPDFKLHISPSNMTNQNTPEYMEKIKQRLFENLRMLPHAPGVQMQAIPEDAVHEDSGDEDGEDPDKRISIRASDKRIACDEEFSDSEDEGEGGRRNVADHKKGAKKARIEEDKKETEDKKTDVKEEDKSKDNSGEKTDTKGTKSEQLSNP

Chain of Histone deacetylase 1 (Q13547 whole entry): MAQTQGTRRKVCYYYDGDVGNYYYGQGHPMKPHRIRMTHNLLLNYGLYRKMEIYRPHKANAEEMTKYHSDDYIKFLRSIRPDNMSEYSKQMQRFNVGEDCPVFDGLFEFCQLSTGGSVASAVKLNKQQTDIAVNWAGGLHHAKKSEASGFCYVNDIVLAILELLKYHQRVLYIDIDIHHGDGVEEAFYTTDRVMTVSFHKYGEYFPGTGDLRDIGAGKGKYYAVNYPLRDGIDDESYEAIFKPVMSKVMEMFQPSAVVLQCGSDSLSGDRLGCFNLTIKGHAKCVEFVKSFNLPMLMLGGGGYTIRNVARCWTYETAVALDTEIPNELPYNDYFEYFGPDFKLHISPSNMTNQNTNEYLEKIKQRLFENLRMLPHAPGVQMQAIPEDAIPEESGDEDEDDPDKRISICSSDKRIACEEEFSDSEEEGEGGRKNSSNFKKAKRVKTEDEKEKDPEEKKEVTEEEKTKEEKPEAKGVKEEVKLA

SMILES: Cc1onc(-c2ccccc2)c1/C=C/CCCCCNC(=O)CS
- IC50 [1]: 3.5 µM
- IC50 (Histone deacetylase 1): 28 µM

SMILES: Cc1onc(-c2ccccc2)c1C(=O)NCCCCCNC(=O)C(C)(C)S
- IC50 (Histone deacetylase 2): > 30 µM
- IC50 [1]: > 30 µM
- IC50 (Histone deacetylase 1): > 30 µM

SMILES: Cc1onc(-c2ccccc2)c1C=CCCCCCNC(=O)C(C)S (mixture of isomers)
- IC50 (Histone deacetylase 2): > 30 µM
- IC50 [1]: 9.8 µM
- IC50 (Histone deacetylase 1): > 30 µM

SMILES: Cc1onc(-c2ccccc2)c1COCCCCCNC(=O)C(C)S (racemic)
- IC50 (Histone deacetylase 2): 14 µM
- IC50 [1]: 0.85 µM
- IC50 (Histone deacetylase 1): 9.6 µM

SMILES: Cc1noc(-c2ccccc2)c1C#CCCCCCNC(=O)C(C)(C)S
- IC50 (Histone deacetylase 2): > 30 µM
- IC50 [1]: > 30 µM
- IC50 (Histone deacetylase 1): > 30 µM

SMILES: Cc1onc(-c2ccccc2)c1C=CCCCCCNC(=O)C(C)(C)S (mixture of isomers)
- IC50 (Histone deacetylase 2): > 30 µM
- IC50 [1]: > 30 µM
- IC50 (Histone deacetylase 1): > 30 µM

SMILES: Cc1onc(-c2ccccc2)c1/C=C\CCCCCNC(=O)CS
- IC50 [1]: 4.8 µM
- IC50 (Histone deacetylase 1): > 30 µM

SMILES: Cc1onc(-c2ccccc2)c1COCCCCCNC(=O)[C@H](C)S
- IC50 [1]: > 30 µM
- IC50 (Histone deacetylase 1): > 30 µM

SMILES: Cc1noc(-c2cccc(F)c2)c1C#CCCCCCNC(=O)C(C)S (racemic)
- IC50 (Histone deacetylase 2): 9.4 µM
- IC50 [1]: 2.6 µM
- IC50 (Histone deacetylase 1): 3.7 µM

SMILES: Cc1onc(-c2ccccc2)c1C=CCCCCCNC(=O)CS (mixture of isomers)
- IC50 (Histone deacetylase 2): > 30 µM
- IC50 [1]: 2.7 µM
- IC50 (Histone deacetylase 1): > 30 µM

SMILES: Cc1onc(-c2ccccc2)c1C(=O)NCCCCCNC(=O)[C@H](C)S
- IC50 (Histone deacetylase 2): > 30 µM
- IC50 [1]: > 30 µM
- IC50 (Histone deacetylase 1): > 30 µM

SMILES: Cc1onc(-c2ccccc2)c1/C=C/c1ccc(CNC(=O)C(C)(C)S)cc1
- IC50 (Histone deacetylase 2): > 30 µM
- IC50 [1]: > 30 µM
- IC50 (Histone deacetylase 1): > 30 µM

SMILES: Cc1onc(-c2ccccc2)c1C(=O)NCCCCCNC(=O)C(C)S (racemic)
- IC50 (Histone deacetylase 2): > 30 µM
- IC50 [1]: 1.1 µM
- IC50 (Histone deacetylase 1): > 30 µM

SMILES: Cc1noc(-c2ccccc2)c1C#CCCCCNC(=O)C(C)(C)S
- IC50 (Histone deacetylase 2): > 30 µM
- IC50 [1]: > 30 µM
- IC50 (Histone deacetylase 1): > 30 µM

SMILES: Cc1noc(-c2ccccc2)c1C#CCCCCCNC(=O)C(C)S (racemic)
- IC50 (Histone deacetylase 2): 7.5 µM
- IC50 [1]: 2 µM
- IC50 (Histone deacetylase 1): 2.7 µM

SMILES: Cc1onc(-c2ccccc2)c1COCCCCCNC(=O)[C@@H](C)S
- IC50 [1]: 0.83 µM
- IC50 (Histone deacetylase 1): 1.5 µM

SMILES: Cc1onc(-c2ccccc2)c1/C=C/c1ccc(CNC(=O)C(C)S)cc1 (racemic)
- IC50 (Histone deacetylase 2): > 30 µM
- IC50 [1]: > 30 µM
- IC50 (Histone deacetylase 1): > 30 µM
